What was measured:
[1] = molecular target: T1, RET M918T (Homo sapiens, UniProt P07949, M918T); assay: HTRF kinase assay, RET M918T; assay type: biochemical; settings: ATP at Km
T1 construct: purchased Carna 08-508
From the text: (§1) • RET enzyme was purchased from Carna Company, and the article number was 08-159; • RET M918T enzyme was purchased from Carna Company, and the article number was 08-508; • KIF5B-RET was purchased from SignalChem Company, the article number was R02-19FG-05; • CCDC6-RET was purchased from SignalChem Company, the article number was R02-19BG-05; • RET V804M enzyme was purchased from Thermofisher Company, and the article number was PV6223; • RET V804L enzyme was purchased from Thermofisher Company, and the article number was PV4397; • HTRF KinEASE-TK kit was purchased from Cisbio Company, and the article number was 62TK0PEC; • ATP was purchased from Thermofisher Company, and the article number was PV3227; • 384-well plate was purchased from PerkinElmer Company, and the article number was 6007290.
(§2) In this experiment, the homogeneous time-resolved fluorescence (HTRF) method was used for the detection of compounds on RET kinase activity.

[2] = Balb/C mouse pharmacokinetics, oral; assay type: in vivo; settings: male, mouse, po, Balb/C mice, p.o., 5 mg/kg, plasma
Description: The pharmacokinetic behavior of the following compound embodiments, administered orally at a dose of 5 mg/kg in plasma in mice, was studied using Balb/C mice as test animals.
Balb/C Mouse 6/embodiment, male, Shanghai Jiesijie Laboratory Animal Co., Ltd, Animal Production License No. (SCXK (Shanghai) 2013-0006 N0.311620400001794).
Balb/C mice, males; p.o. after overnight fasting, respectively, at a dose of 5 mg/kg, administered in a volume of 10 mL/kg.
0.5% CMC-Na(1% Tween80) was dissolved by ultrasound, and prepared into clear solution or uniform suspension.
Before and after administration, 0.1 mL of blood was collected from mice at 0, 0.5, 1, 2, 4, 6, 8 and 24 hours by orbital collection, placed in EDTA-K2 tubes, centrifuged at 6000 rpm at 4° C. for 6 min to separate plasma, and stored at −80° C.
40 μL of plasma sample was precipitated by adding 160 μL of acetonitrile, mixed and centrifuged at 3500×g for 5-20 min.
100 μL of the supernatant solution after treatment was taken to analyze the concentration of the test compound by LC/MS/MS.
The main pharmacokinetic parameters were calculated using WinNonlin 6.1 and the results of the mouse pharmacokinetic experiments were shown in Table 8 below.

[3] = test system: TT cells (MTC, RET C634W); assay: TT cell proliferation (CellTiter-Glo); assay type: cell-based, human; settings: Homo sapiens, TT, 72 h
Description: When TT cells were cultured to the appropriate fusion level, TT cells were collected, and the cells were adjusted to the appropriate cell concentration using complete medium, and the cell suspension was spread in a 96-well plate, 90 µL per well, and placed in a 37° C., 5% CO2 incubator overnight; and compound solutions of different concentrations were prepared using DMSO and culture medium; and a solvent control was set, the compound solution was added to a 96-well plate, 10 µL per well, at 37° C. in a 5% CO2 incubator for 72 hours; CellTiter-Glo solution was added thereto and the mixture was mixed well by shaking, incubated for 10 min in the dark, and read by BioTek Synergy H1 microplate reader.
The luminescence signal values were used to calculate the inhibition rate, the concentration and the inhibition rate were fitted to a nonlinear regression curve using Graphpad Prism software.

[4] = molecular target: T2, KDR kinase (Homo sapiens, UniProt P35968); assay: HTRF kinase assay, KDR; assay type: biochemical; settings: for IC50: HTRF, ATP at Km; for Ratio (KDR/RET): KDR IC50 / RET IC50
T2 construct: purchased Carna 08-191
T2 sequence (P35968 20-1356): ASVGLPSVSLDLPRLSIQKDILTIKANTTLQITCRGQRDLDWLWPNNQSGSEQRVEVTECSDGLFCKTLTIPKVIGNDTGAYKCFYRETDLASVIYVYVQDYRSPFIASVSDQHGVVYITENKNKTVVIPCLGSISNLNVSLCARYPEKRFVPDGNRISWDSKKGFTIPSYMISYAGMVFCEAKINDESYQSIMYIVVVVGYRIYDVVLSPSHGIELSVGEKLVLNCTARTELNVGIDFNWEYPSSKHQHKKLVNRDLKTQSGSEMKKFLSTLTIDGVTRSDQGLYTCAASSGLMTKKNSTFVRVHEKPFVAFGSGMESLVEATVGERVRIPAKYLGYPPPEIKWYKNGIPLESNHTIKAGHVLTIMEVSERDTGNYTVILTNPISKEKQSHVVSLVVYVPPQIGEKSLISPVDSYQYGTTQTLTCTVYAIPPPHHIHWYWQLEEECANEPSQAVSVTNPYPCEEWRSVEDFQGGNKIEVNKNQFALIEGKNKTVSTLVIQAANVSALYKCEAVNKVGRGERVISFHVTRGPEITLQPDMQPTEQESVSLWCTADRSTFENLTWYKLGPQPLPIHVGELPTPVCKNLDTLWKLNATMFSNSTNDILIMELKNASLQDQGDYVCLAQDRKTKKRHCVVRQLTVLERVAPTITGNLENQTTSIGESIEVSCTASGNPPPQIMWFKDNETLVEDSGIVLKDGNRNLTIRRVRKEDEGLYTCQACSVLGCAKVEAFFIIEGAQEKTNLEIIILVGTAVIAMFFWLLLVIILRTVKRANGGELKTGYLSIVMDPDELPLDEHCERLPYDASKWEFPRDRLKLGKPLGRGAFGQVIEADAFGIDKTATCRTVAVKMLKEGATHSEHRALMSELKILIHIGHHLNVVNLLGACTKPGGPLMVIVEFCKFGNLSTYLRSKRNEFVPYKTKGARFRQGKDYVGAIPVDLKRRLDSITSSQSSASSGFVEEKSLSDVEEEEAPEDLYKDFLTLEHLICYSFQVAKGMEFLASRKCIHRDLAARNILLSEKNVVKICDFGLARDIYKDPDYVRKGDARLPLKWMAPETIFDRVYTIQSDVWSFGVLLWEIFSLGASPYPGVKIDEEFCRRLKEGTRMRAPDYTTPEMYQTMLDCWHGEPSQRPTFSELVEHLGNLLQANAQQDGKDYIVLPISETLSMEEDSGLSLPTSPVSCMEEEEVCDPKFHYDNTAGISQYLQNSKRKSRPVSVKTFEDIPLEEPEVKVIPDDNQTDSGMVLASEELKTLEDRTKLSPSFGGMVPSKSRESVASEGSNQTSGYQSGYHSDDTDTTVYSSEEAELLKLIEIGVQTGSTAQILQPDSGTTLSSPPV
From the text: • KDR kinase was purchased from Carna Company, and the article number was 08-191; • HTRF KinEASE-TK kit was purchased from Cisbio Company, and the article number was 62TK0PEC; • ATP was purchased from Thermofisher Company, and the article number was PV3227; • 384-well plate was purchased from PerkinElmer Company, and the article number was 6007290.
In this experiment, the homogeneous time-resolved fluorescence (HTRF) method was used for the detection of compounds on KDR kinase activity.

[5] = molecular target: T3, Ba/F3 KIF5B-RET cells (Homo sapiens, UniProt P07949); assay: Ba/F3 KIF5B-RET cell proliferation (CellTiter-Glo); assay type: cell-based; settings: 72 to 144 hours, read-out: Ba/F3 KIF5B-RET IC50
T3 construct: fused on or other part: P33176 (Kinesin-1 heavy chain)
T3 sequence (P07949 whole entry, change not shown, the tested form may be a part): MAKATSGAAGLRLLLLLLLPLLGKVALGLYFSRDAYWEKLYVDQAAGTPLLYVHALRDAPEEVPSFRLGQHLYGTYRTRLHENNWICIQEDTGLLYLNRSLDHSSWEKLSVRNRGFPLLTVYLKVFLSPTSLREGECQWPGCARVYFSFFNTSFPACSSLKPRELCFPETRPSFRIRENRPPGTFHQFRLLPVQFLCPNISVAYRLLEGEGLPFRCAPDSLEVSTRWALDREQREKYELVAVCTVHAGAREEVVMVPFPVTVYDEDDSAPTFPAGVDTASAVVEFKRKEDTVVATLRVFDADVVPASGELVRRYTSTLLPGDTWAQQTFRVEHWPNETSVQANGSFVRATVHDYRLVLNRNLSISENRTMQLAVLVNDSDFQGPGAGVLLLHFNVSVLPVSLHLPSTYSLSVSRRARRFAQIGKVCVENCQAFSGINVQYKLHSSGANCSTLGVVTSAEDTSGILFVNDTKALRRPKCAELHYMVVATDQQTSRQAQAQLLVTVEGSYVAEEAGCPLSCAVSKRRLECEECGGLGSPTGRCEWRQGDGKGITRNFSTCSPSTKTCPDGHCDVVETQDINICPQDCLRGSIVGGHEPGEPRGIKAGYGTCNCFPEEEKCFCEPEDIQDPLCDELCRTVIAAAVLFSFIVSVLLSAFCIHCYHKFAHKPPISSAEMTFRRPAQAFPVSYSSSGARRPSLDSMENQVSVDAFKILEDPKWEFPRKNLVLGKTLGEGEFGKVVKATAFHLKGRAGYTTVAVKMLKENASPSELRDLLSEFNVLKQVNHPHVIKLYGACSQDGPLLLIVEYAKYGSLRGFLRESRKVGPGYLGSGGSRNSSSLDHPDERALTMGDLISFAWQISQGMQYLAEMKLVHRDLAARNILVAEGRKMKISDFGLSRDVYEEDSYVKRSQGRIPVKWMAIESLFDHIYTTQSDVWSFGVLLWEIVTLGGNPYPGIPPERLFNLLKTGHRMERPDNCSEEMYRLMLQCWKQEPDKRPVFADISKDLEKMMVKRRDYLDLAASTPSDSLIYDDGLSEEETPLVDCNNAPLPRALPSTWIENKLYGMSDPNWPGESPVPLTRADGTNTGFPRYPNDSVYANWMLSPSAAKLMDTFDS
Description: When Ba/F3 KIF5B-RET cells were cultured to the appropriate cell density, cells were collected, and the cells were adjusted to the appropriate cell concentration using complete medium, and the cell suspension was spread in a 96-well plate, 90 μL per well, and placed in a 37° C., 5% CO2 incubator for overnight; compound solutions of different concentrations were prepared using DMSO and culture medium; a solvent control was set, and the compound solution was added to a 96-well plate with 10 μL per well at 37° C. in a 5% CO2 incubator for 72 to 144 hours; CellTiter-Glo solution was added thereto and mixed well by shaking, incubated for 10 min in the dark, and read by BioTek Synergy H1 microplate reader.
The luminescence signal values were used to calculate the inhibition rate, the concentrations and the inhibition rates were fitted to a nonlinear regression curve using Graphpad Prism software.

[6] = molecular target: T4, RET (Homo sapiens, UniProt P07949); assay: HTRF kinase assay, RET wild-type; assay type: biochemical; settings: ATP at Km
T4 construct: purchased Carna 08-159
T4 sequence (P07949 29-1114): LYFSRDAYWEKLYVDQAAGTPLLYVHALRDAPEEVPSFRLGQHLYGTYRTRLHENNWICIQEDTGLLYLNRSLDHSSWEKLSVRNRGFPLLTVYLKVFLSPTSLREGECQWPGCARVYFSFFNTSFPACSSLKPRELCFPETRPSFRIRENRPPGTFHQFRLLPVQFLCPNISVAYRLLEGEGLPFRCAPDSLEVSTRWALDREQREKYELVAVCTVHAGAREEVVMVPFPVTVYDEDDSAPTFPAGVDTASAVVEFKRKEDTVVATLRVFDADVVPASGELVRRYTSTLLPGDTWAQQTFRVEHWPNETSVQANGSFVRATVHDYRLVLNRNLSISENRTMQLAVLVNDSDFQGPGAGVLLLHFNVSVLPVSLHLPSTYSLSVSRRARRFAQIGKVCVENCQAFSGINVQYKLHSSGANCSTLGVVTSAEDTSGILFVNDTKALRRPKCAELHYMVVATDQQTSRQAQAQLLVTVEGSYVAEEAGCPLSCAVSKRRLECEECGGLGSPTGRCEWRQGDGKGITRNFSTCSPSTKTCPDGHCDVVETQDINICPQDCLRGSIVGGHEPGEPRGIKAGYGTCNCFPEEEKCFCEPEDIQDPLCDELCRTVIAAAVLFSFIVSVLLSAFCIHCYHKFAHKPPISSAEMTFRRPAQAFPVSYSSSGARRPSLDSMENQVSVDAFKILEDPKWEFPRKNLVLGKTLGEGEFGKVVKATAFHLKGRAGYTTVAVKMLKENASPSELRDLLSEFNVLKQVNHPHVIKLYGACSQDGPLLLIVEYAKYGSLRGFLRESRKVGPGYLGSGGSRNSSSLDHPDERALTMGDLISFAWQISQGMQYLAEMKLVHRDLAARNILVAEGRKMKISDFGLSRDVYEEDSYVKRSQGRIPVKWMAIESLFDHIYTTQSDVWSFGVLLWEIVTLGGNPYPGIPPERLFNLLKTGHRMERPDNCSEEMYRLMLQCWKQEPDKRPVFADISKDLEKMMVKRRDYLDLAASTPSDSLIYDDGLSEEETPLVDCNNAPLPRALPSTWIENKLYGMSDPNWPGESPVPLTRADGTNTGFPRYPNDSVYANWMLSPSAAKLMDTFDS
From the text: as §1, §2

T1 sequence (P07949 29-1114 M918T): as the sequence (P07949 29-1114) above, with M890T counted along it

Row | SMILES | IC50 [1] [nM] | MRT ([2]; read-out: Average residence time MRT) [h] | Cmax ([2]; read-out: Blood concentration Cmax) [ng/mL] | AUC(0-t) ([2]; read-out: Curve area AUC0-t) [ng·h/mL] | AUC(0-inf) ([2]; read-out: Curve area AUC0-∞) [ng·h/mL] | half-life ([2]; read-out: Half-life t1/2 (converted)) [min] | Tmax ([2]; read-out: Peak time tmax) [min] | IC50 [3] [nM] | IC50 [4] [nM] | Ratio (KDR/RET) [4] | GI50 [5] [nM] | IC50 [6] [nM]
1 | COc1ccc(CN2C3CC2CN(c2ccc(-c4cc(OCC5(C#N)CC5)cn5ncc(C#N)c45)cn2)C3)cn1 [Embodiment 106, 6-((1-Cyanocyclopropyl)methoxy)-4-(6-(6-((6-methoxypyridin-3-yl)methyl)-3,6-diazabicyclo[3.1.1]heptan-3-yl)pyridin-3-yl)pyrazolo[1,5-a]pyridine-3-carbonitrile] | 0.47 | 4.71 | 3120 | 18900 | 18900 | 160 | 30 | 19 | – | – | – | –
2 | COc1ncc(CN2C3CC2CN(c2ccc(-c4cc(OC[C@H]5C[C@@](C)(O)C5)cn5ncc(C#N)c45)cn2)C3)cc1F [Embodiment 161, 4-(6-(6-((5-Fluoro-6-methoxypyridin-3-yl)methyl)-3,6-diazabicyclo[3.1.1]heptan-3-yl)pyridin-3-yl)-6-((cis-3-hydroxy-3-methylcyclobutyl)methoxy)pyrazolo[1,5-a]pyridine-3-carbonitrile] | – | – | – | – | – | – | – | 13.9 | 7.4 | 20 | 8.59 | 0.37
3 | CC1(NC(=O)c2ncccc2Cl)CCN(c2ccc(-c3cc(C#CC4(O)COC4)cn4ncc(C#N)c34)cn2)CC1 [Embodiment 175, 3-Chloro-N-(1-(5-(3-cyano-6-((3-hydroxyoxetan-3-yl)ethynyl)pyrazolo[1,5-a]pyridin-4-yl)pyridin-2-yl)-4-methylpiperidin-4-yl)picolinamide] | – | – | – | – | – | – | – | 18.5 | 47 | 185 | 15.5 | 0.25

— patent US20260042759A1, “INHIBITOR CONTAINING BICYCLIC DERIVATIVE, PREPARATION METHOD THEREFOR AND USE THEREOF” (SHANGHAI HANSOH BIOMEDICAL CO., LTD., priority 2019, published 2026)
